We go through 1 substance from publication PMC5133935, “Hydrostatin-TL1, an Anti-Inflammatory Active Peptide from the Venom Gland of Hydrophis cyanocinctus in the South China Sea” (International Journal of Molecular Sciences, 2016).

Entries after “also recorded” stand apart in the source; their conditions may differ. No end group written: not given here.

Data set [1] concerns L929 cells. Nature of the data set: MTT assay, protection from TNF-α-mediated cytotoxicity. It counts as cell-based, mouse. Particulars: H-TL1 1 to 1000 nM; hrTNF-α 20 ng/mL + 0.2 μg/mL actinomycin D; 18–20 h, 37 °C; MTT 490 nm; n = 5. As to the method: (§1) We used the L929 cell line, which is commonly chosen by researchers, to evaluate the effects of H-TL1 on TNF-α-mediated cytotoxicity. The cells were treated with TNF-α and 0.2 μg/mL actinomycin D in the presence of graded concentrations of H-TL1. Cell viability was evaluated using MTT assay. […] Furthermore, H-TL1 was not cytotoxic against L929 cells at 100 μM (data not shown), which far exceeds the concentration of H-TL1 used in the in vitro assays.
The H. cyanocinctus specimens were captured during September 2005 in the South China Sea near Guangdong Province, People’s Republic of China. After collection, the snakes were killed, and the venom glands were isolated and immediately frozen in liquid nitrogen until use. HEK-293 human embryonic kidney and L929 mouse fibroblast cell lines were obtained from ATCC and cultured in Dulbecco’s modified Eagle’s medium (DMEM, Sigma-Aldrich, St. Louis, MO, USA) containing 10% (v/v) heat-inactivated fetal bovine serum (FBS, Gibco, BRL, Grand Island, NY, USA) at 37 °C in an atmosphere of 5% CO2. […]
For MTT cell viability assay, L929 cells were seeded onto a 96-well plate and cultured for 12 h. […] Following incubation at 37 °C for 18–20 h, MTT solution was added, followed by incubation at 37 °C for 4 h, and then the absorbance was determined at 490 nm. […]
Background: Tetrazolium dyes change colour on reduction, which living cells bring about.

Data set [2] concerns NF-κB and MAPK activation in colonic tissue of DSS mice. Nature of the data set: Western blot of colonic tissue in DSS-induced colitis. Particulars: H-TL1 vs. vehicle, p-ERK (Thr202/Tyr204), p-JNK (Thr183/Tyr185), p-IκB (Ser32/36). It is filed as in vivo, mouse. As to the method:
(§2) For Western blotting, the cell or tissue specimen extracts were resolved in a 10% SDS-PAGE gel, and then the separated proteins were transferred to a nitrocellulose filter membrane. The antigens were detected by using specific antibodies against total and phosphorylated IκB, p38, ERK, and JNK followed by incubation with the respective secondary antibodies. GAPDH was simultaneously detected as the control to compare the protein loading in each lane. The mouse monoclonal anti-IκB, mouse monoclonal anti-p-IκB (Ser32/36), rabbit monoclonal anti-ERK, and rabbit monoclonal anti-p-ERK (Thr202/Tyr204) antibodies were from Cell Signaling Technologies (Beverly, MA, USA). The mouse polyclonal anti-p-p38 (Thr180/Tyr182), rabbit polyclonal anti-p38, rabbit monoclonal anti-p-JNK (Thr183/Tyr185), and mouse monoclonal anti-JNK antibodies were from Thermo Fisher Scientific (Rockford, IL, USA). The rabbit monoclonal anti-GAPDH antibody was from Santa Cruz Biotechnology (Santa Cruz, CA, USA), and the fluorescent-labeled secondary antibodies were from Li-COR Biosciences (Lincoln, NE, USA).
To induce colitis, 6–8 week old male BALB/c mice were administered 2.5% DSS solution in their drinking water for 7–8 consecutive days, ad libitum. […] DAI was monitored during the entire experiment and was assessed according to the method described in Table 1.
A general note: In western blotting, separated proteins are transferred to a membrane and probed.

For data set [3], the system named is HEK-293 cells, TNF-α-mediated NF-κB and MAPKs signaling. Nature of the data set: Western blot, TNF-α-induced phosphorylation in HEK-293 cells. Particulars: TNF-α 20 ng/mL, 10 min. It is filed as cell-based, human.
From the text: The NF-κB and MAPKs pathways are key signaling pathways of TNF-α-mediated inflammation. Therefore, we analyzed the mechanisms underlying H-TL1-induced inhibition of TNF-α-mediated inflammation by Western blotting in HEK-293 cells. […] To identify the specific effects of H-TL1 on TNF-α downstream signaling, we induced IL-1β as a potent activator of NF-κB that is specific to that pathway.
(§3) The H. cyanocinctus specimens were captured during September 2005 in the South China Sea near Guangdong Province, People’s Republic of China. After collection, the snakes were killed, and the venom glands were isolated and immediately frozen in liquid nitrogen until use. HEK-293 human embryonic kidney and L929 mouse fibroblast cell lines were obtained from ATCC and cultured in Dulbecco’s modified Eagle’s medium (DMEM, Sigma-Aldrich, St. Louis, MO, USA) containing 10% (v/v) heat-inactivated fetal bovine serum (FBS, Gibco, BRL, Grand Island, NY, USA) at 37 °C in an atmosphere of 5% CO2. The BLT5403 E. coli strain (used as the phage host strain) was from Novagen (Merck) and was cultured at 37 °C for propagation. The specific pathogen-free (SPF) male BALB/c and C57BL/6 mice (both 6–8 weeks old), weighing 20 ± 2 g were purchased from Shanghai SLAC Laboratory Animal Co., Ltd. (Shanghai, China). The mice were housed in animal facilities with 50% humidity under a 12-h light-dark cycle, fed a standard pellet diet, and provided with tap water ad libitum. The animal experimental protocols in this research, including venom gland isolation and the mouse study, were approved by the Animal Care and Use Committee of the Second Military Medical University.
as §2

In data set [4] the test system is LPS-induced acute shock in C57BL/6 mice. Briefly: LPS-induced acute shock, survival. It is filed as in vivo, mouse. Particulars: for survival rate: within 96 h, LPS + vehicle all died within 30 h, n = 8.
From the text: as §3
The LPS-induced acute shock model was established in male C57BL/6 mice (6–8 weeks old) that were randomly allocated to five groups. LPS was administered (15 mg/kg body weight) to induce acute shock. The LPS- or normal saline-treated mice were injected with 100 μL of normal saline with or without LPS intraperitoneally, while the H-TL1 and LPS-treated mice were each administered H-TL1 at three doses of 20, 40, and 80 μg/kg 1, 3, and 5 h after the LPS injection (Figure 5A). The mice were observed every 4 h to evaluate mortality.

Data set [5] concerns L929 cells. It counts as cell-based, mouse. Particulars: H-TL1 100 μM; data not shown. How it is done: as §1
as §3, with “The mice were housed in animal facilities with 50% humidity under a 12-h light-dark cycle, fed a standard pellet diet, and provided with tap water ad libitum. The animal experimental protocols in this research, including venom gland isolation and the mouse study, were approved by the Animal Care and Use Committee of the Second Military Medical University.” left out

Data set [6] has as its system DSS-induced inflammation of colonic mucosa, BALB/c mice. Briefly: Colon histopathology in DSS-induced colitis. It counts as in vivo, mouse. Particulars: for colon morphology (H&E): H&E 40×. How it is done: To induce colitis, 6–8 week old male BALB/c mice were administered 2.5% DSS solution in their drinking water for 7–8 consecutive days, ad libitum. Importantly, 30–40 kDa DSS was used to establish the animal model in this study because it is known to induce more severe colitis than 5 and 500 kDa DSS [37]. The mice were concomitantly administered H-TL1 (0.5 or 1 mg/kg) once daily for 7–8 consecutive days by intraperitoneal injection. Establishment of the DSS-induced colitis was evidenced by an increase in DAI, with associated weight loss, loose stool consistency, and presence of blood in the feces. DAI was monitored during the entire experiment and was assessed according to the method described in Table 1.
The colonic tissue samples were fixed in 4% neutral formalin, dehydrated with increasing concentrations of ethanol, embedded in paraffin, and subsequently cut into 5-μm thick sections, which were mounted on slides, cleared, hydrated, and stained with hematoxylin and eosin (H&E). Histological grading was assessed according to previously described criteria (Table 2), and the scoring criteria used were similar to those described previously.

The subject of another data set is TNF-α/TNFR2. Nature of the data set: Competitive ELISA, inhibition of TNF-α binding to TNFR2. Further details: species or system human. Particulars: sTNFR2-coated plate, H-TL1 0–1 μM, n = 3. (In general: In an ELISA, binding on a coated surface is turned into a signal by an enzyme label.)

For ATSKPSLKC-OH [H-TL1], the “inhibition of TNF-α-induced L929 cell death” value in the data set on L929 cells [1] was “inhibited TNF-α-induced L929 cell death in a concentration-dependent manner; also recorded: improved survival in TNF-α-treated L929 cells”. Besides, the “activation (phosphorylation) of JNK, ERK, and IκB in colonic tissue” value in data set [2] was “JNK, ERK, and IκB were activated; however, this effect was inhibited by H-TL1 treatment”. In data set [3], the “concentration inhibiting TNF-α-mediated ERK (Thr202/Tyr204) phosphorylation” value lay within 0.8 to 1.6 µM, the “concentration inhibiting TNF-α-mediated p38 (Thr180/Tyr182) phosphorylation” value was 0.8 to 1.6 µM, the “concentration suppressing TNF-α-mediated IκB (Ser32/36) phosphorylation” value fell in the range of 0.4 to 1.6 µM and the “concentration suppressing TNF-α-mediated JNK (Thr183/Tyr185) phosphorylation” value lay in the range of 0.4 to 1.6 µM. Also, in data set [4] (H-TL1 40 μg/kg at 1, 3, and 5 h after LPS 15 mg/kg i.p., * p < 0.05), the survival rate was 37.5%. The survival rate in data set [4] (H-TL1 80 μg/kg at 1, 3, and 5 h after LPS 15 mg/kg i.p., *** p < 0.001) is listed as 62.5%. Also, the “protection from LPS-induced acute shock, dose dependence” value in data set [4] (H-TL1 20, 40, and 80 μg/kg, LPS 15 mg/kg i.p.) is recorded as “protected the mice from LPS-induced acute shock in a dose-dependent manner”. The “cytotoxicity against L929 cells” value with L929 cells [5] was “not cytotoxic”. Further, the “colon morphology (H&E)” value in data set [6] (H-TL1 0.5 mg/kg, 0.5 mg/kg) is reported as “serious colonic damage that was comparable to that of the DSS + vehicle-treated mice; also recorded: had little effect on DSS-induced colonic inflammation”. The “colon morphology (H&E)” value in data set [6] (H-TL1 1 mg/kg, 1 mg/kg) is given as “remarkably alleviated; also recorded: alleviated DSS-induced colonic inflammation”. For the same substance, the total histological score entry in data set [6] (H-TL1 1 mg/kg, n = 8, ** p < 0.01 vs. DSS only group) is “significantly reduces DSS-induced inflammation of colonic mucosa”. Also, in the data set on TNF-α/TNFR2, the “inhibition of TNF-α/TNFR2 binding, in words” value was “had little impact on TNF-α/TNFR2 interactions; also recorded: the percent inhibition had no apparent linear relation to the H-TL1 concentration”. The “effect on the binding of TNF-α with TNFR2 (inhibition)” value with TNF-α/TNFR2 (hrTNF-α 20 ng/mL) is reported as “approximately 20%”.
